Assay results as given in PubChem BioAssay (NCI).
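Grown in 96-well plates, cells were treated for 48 hours with each compound at five concentrations. Insufficient inhibition: endpoint recorded as highest concentration tested. TGI: concentration producing complete growth inhibition.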

The molecules below were run on MDA-MB-231 breast (assay: NCI anticancer screen, dose series, 48 h).
With CC(C)(C)C(=O)CC1=Nc2ccccc2SC1(O)CC(=O)C(C)(C)C (stereo not drawn) the TGI was 36.2 µM. N#CC1=C(N)N(c2ccccc2)C(c2ccccc2)C1(C#N)C#N (stereo not drawn) was tested, and the TGI was 29.8 µM. C=CCOc1ccc(C2(O)c3ccccc3C3=NCCCN32)cc1 (stereo not drawn) was tested, and the TGI was greater than 100 µM. Molecule O=C1/C(=C/c2ccc(Cl)cc2)CSc2ccccc21 has a TGI of 55.9 µM. CCC/C(Cl)=N\OC(=O)Nc1ccc(OC(F)(F)F)cc1 gave a TGI of 25.8 µM. Work on COc1cccc(/C=N/n2c(C)n[nH]c2=O)c1 yielded a TGI greater than 100 µM. For Cc1ccc(S(=O)(=O)NC(=O)N[C@@H](Cc2cnc[nH]2)C(=O)O)cc1, the TGI was greater than 100 µM. CC(=O)OCC1OC(n2c3c(cc(C#N)c2=S)CCCCC3)C(OC(C)=O)C(OC(C)=O)C1OC(C)=O (stereo not drawn) was tested, and the TGI was greater than 100 µM. Work on CCN1CCC(O)(/C=C/c2ccc(C)cc2C)C(C(=O)/C=C/c2ccc(C)cc2C)C1 (stereo not drawn) yielded a TGI of 4.32 µM. S=C(Nc1ccc2c(c1)oc1ccccc12)c1cccnc1 showed a TGI greater than 100 µM. Cc1cc(S(=O)(=O)Nc2nc3cc(-c4ccc(Cl)cc4)sc3c(=O)n2N)c(S)cc1Cl showed a TGI greater than 100 µM. Work on [N-]=[N+]=NC1=C(c2ccccn2)C(=O)c2cccc3cccc1c23 yielded a TGI greater than 100 µM. C=C([C@@]1(O)C[C@H]2[C@H](CCC2(OC)OC)[C@@H]2c3ccccc3O[C@@H]21)[Si](C)(C)C was tested, and the TGI was greater than 100 µM. Molecule O=C(O)c1ccc(OCc2nc3cc(C(F)(F)F)ccc3nc2-c2ccccc2)cc1 has a TGI greater than 100 µM. COc1ccc2c(c1)CCN1CCc3ccccc3CC21 (stereo not drawn) was tested, and the TGI was greater than 100 µM. In the case of CN(C)c1ccc(C2SCC(=O)N2c2ccc(Oc3ccc(Cl)cc3)c(Cl)c2)cc1 (stereo not drawn), the TGI is reported as 43.3 µM. Molecule COc1ccc(/C=C2\N=C(SC)NC2=O)cc1 has a TGI greater than 100 µM. Nc1ccc(C(=O)N2CCC[C@H]2CO)c(N)c1 was tested, and the TGI was greater than 100 µM. With O=c1oc2ccc([N+](=O)[O-])cc2c(Nc2ccc3c(c2)Oc2ccccc2O3)c1[N+](=O)[O-] the TGI was 37 µM. Work on CC1=C(CO)C(=O)O[C@@H]([C@@H](CO)[C@H]2CCC3C4C[C@@H](O)[C@@]5(O)CC=CC(=O)[C@]5(C)C4CC[C@@]32C)C1 (stereo partly drawn) yielded a TGI greater than 100 µM. With Cn1c2ccccc2c(=O)c2cccc(C(=O)NC(CCCN=C(N)N)C(=O)O)c21 (stereo not drawn) the TGI was greater than 100 µM. With O=C(O)/C=c1/c2ccccc2n2nc3ccccc3c12 the TGI was greater than 100 µM. O=C1c2ccccc2C2(c3ccc(Cl)cc3)N[C@H]3CCCC[C@@H]3N12 (stereo partly drawn) gave a TGI greater than 100 µM.

The molecules below were run on MDA-N (assay: NCI anticancer screen, dose series, 48 h).
C=C1C(=O)C=C[C@]2(C)CC[C@H]3C(=C)C(=O)O[C@@H]3[C@@H]12 showed a TGI of 16.6 µM. In the case of CC12CCC(O)CC1CCC1C2CCC2(C)C(C(=O)CC(O)C(F)(F)F)CCC12 (stereo not drawn), the TGI is reported as greater than 100 µM. For CC(C)(C)OC(=O)NCCCNC1(c2cc3ccccc3s2)CCCCC1, the TGI was 28.8 µM. Work on CC(C)(C)C(=O)CC1=Nc2ccccc2SC1(O)CC(=O)C(C)(C)C (stereo not drawn) yielded a TGI greater than 100 µM. With N#CC1=C(N)N(c2ccccc2)C(c2ccccc2)C1(C#N)C#N (stereo not drawn) the TGI was 41 µM. C=CCOc1ccc(C2(O)c3ccccc3C3=NCCCN32)cc1 (stereo not drawn) was tested, and the TGI was greater than 63.2 µM. O=C1/C(=C/c2ccc(Cl)cc2)CSc2ccccc21 was tested, and the TGI was 61.7 µM. In the case of CCC/C(Cl)=N\OC(=O)Nc1ccc(OC(F)(F)F)cc1, the TGI is reported as 28.2 µM. With COc1cccc(/C=N/n2c(C)n[nH]c2=O)c1 the TGI was greater than 100 µM. Cc1ccc(S(=O)(=O)NC(=O)N[C@@H](Cc2cnc[nH]2)C(=O)O)cc1 gave a TGI greater than 100 µM. Molecule CC(=O)OCC1OC(n2c3c(cc(C#N)c2=S)CCCCC3)C(OC(C)=O)C(OC(C)=O)C1OC(C)=O (stereo not drawn) has a TGI greater than 100 µM. Molecule CCN1CCC(O)(/C=C/c2ccc(C)cc2C)C(C(=O)/C=C/c2ccc(C)cc2C)C1 (stereo not drawn) has a TGI of 6.26 µM. Molecule S=C(Nc1ccc2c(c1)oc1ccccc12)c1cccnc1 has a TGI greater than 100 µM. With Cc1cc(S(=O)(=O)Nc2nc3cc(-c4ccc(Cl)cc4)sc3c(=O)n2N)c(S)cc1Cl the TGI was greater than 100 µM. For [N-]=[N+]=NC1=C(c2ccccn2)C(=O)c2cccc3cccc1c23, the TGI was greater than 100 µM. In the case of C=C([C@@]1(O)C[C@H]2[C@H](CCC2(OC)OC)[C@@H]2c3ccccc3O[C@@H]21)[Si](C)(C)C, the TGI is reported as greater than 100 µM. For O=C(O)c1ccc(OCc2nc3cc(C(F)(F)F)ccc3nc2-c2ccccc2)cc1, the TGI was greater than 100 µM. Molecule COc1ccc2c(c1)CCN1CCc3ccccc3CC21 (stereo not drawn) has a TGI greater than 100 µM. For CN(C)c1ccc(C2SCC(=O)N2c2ccc(Oc3ccc(Cl)cc3)c(Cl)c2)cc1 (stereo not drawn), the TGI was 58.5 µM. In the case of COc1ccc(/C=C2\N=C(SC)NC2=O)cc1, the TGI is reported as greater than 100 µM. In the case of Nc1ccc(C(=O)N2CCC[C@H]2CO)c(N)c1, the TGI is reported as greater than 100 µM. For O=c1oc2ccc([N+](=O)[O-])cc2c(Nc2ccc3c(c2)Oc2ccccc2O3)c1[N+](=O)[O-], the TGI was greater than 100 µM. With CC1=C(CO)C(=O)O[C@@H]([C@@H](CO)[C@H]2CCC3C4C[C@@H](O)[C@@]5(O)CC=CC(=O)[C@]5(C)C4CC[C@@]32C)C1 (stereo partly drawn) the TGI was greater than 100 µM. Work on Cn1c2ccccc2c(=O)c2cccc(C(=O)NC(CCCN=C(N)N)C(=O)O)c21 (stereo not drawn) yielded a TGI greater than 100 µM. Molecule O=C(O)/C=c1/c2ccccc2n2nc3ccccc3c12 has a TGI greater than 100 µM. O=C1c2ccccc2C2(c3ccc(Cl)cc3)N[C@H]3CCCC[C@@H]3N12 (stereo partly drawn) showed a TGI greater than 100 µM.

What follows are molecules tested on NCI-H226 lung (assay: NCI anticancer screen, dose series, 48 h).
CC12CCC(O)CC1CCC1C2CCC2(C)C(C(=O)CC(O)C(F)(F)F)CCC12 (stereo not drawn) showed a TGI greater than 100 µM. With CC(C)(C)OC(=O)NCCCNC1(c2cc3ccccc3s2)CCCCC1 the TGI was 46.1 µM. Work on CC(C)(C)C(=O)CC1=Nc2ccccc2SC1(O)CC(=O)C(C)(C)C (stereo not drawn) yielded a TGI of 40.3 µM. Work on N#CC1=C(N)N(c2ccccc2)C(c2ccccc2)C1(C#N)C#N (stereo not drawn) yielded a TGI of 36.2 µM. C=CCOc1ccc(C2(O)c3ccccc3C3=NCCCN32)cc1 (stereo not drawn) was tested, and the TGI was greater than 100 µM. O=C1/C(=C/c2ccc(Cl)cc2)CSc2ccccc21 showed a TGI of 45.2 µM. CCC/C(Cl)=N\OC(=O)Nc1ccc(OC(F)(F)F)cc1 showed a TGI of 34.5 µM. For COc1cccc(/C=N/n2c(C)n[nH]c2=O)c1, the TGI was greater than 100 µM. In the case of CC(=O)OCC1OC(n2c3c(cc(C#N)c2=S)CCCCC3)C(OC(C)=O)C(OC(C)=O)C1OC(C)=O (stereo not drawn), the TGI is reported as greater than 100 µM.
